Values of other authors as cited in patent US20050003003A1, “Modulation of release from dry powder formulations” (Advanced Inhalation Research, Inc., priority 1999, published 2005).

Conditions: Table 1, phospholipids with low transition temperatures

| Structure (SMILES) | Transition Temperature [°C] |
| --- | --- |
| CCCCCCCCCCCC(=O)OC[C@H](COP(=O)(O)OCCN)OC(=O)CCCCCCCCCCC [DLPE, 1,2-Dilauroyl-sn-glycero-3-phosphoethanolamine] | 29 |
| CCCCCCCCCCCC(=O)OC[C@H](COP(=O)([O-])OCC[N+](C)(C)C)OC(=O)CCCCCCCCCCC [DLPC, 1,2-Dilauroyl-sn-glycero-3-phosphocholine] | −1 |
| CCCCCCCCCCCC(=O)OC[C@H](COP(=O)(O)O)OC(=O)CCCCCCCCCCC [DLPA, 1,2-Dilauroyl-sn-glycero-3-phosphate] | 31 |
| CCCCCCCCCCCCCC(=O)OC[C@H](COP(=O)([O-])OCC[N+](C)(C)C)OC(=O)CCCCCCCCCCCCC [DMPC, 1,2-Dimyristoyl-sn-glycero-3-phosphocholine] | 23 |
| CCCCCCCCCCCCCC(=O)OC[C@H](COP(=O)(O)OCC(O)CO)OC(=O)CCCCCCCCCCCCC (mixture of isomers) [DMPG, 1,2-Dimyristoyl-sn-glycero-3-[phospho-rac-(1-glycerol)]] | 23 |
| CCCCCCCCCCCCC(=O)OC[C@H](COP(=O)([O-])OCC[N+](C)(C)C)OC(=O)CCCCCCCCCCCC [1,2-Ditridecanoyl-sn-glycero-3-phosphocholine] | 14 |
| CCCCCCCCCCCCCC(=O)OC[C@H](COP(=O)(O)OC[C@H](N)C(=O)O)OC(=O)CCCCCCCCCCCCC [1,2-Dimyristoyl-sn-glycero-3-[phospho-L-serine]] | 35 |
| CCCCCCCCCCCCCCCC(=O)OC[C@H](COP(=O)(O)OCC(O)CO)OC(=O)CCCCCCCCCCCCCCC (mixture of isomers) [DPPG, 1,2-Dipalmitoyl-sn-glycero-3-[phospho-rac-(1-glycerol)]] | 41 |

Continued, values first:

| Transition Temperature [°C] | Structure (SMILES) |
| --- | --- |
| 41 | CCCCCCCCCCCCCCCC(=O)OC[C@H](COP(=O)([O-])OCC[N+](C)(C)C)OC(=O)CCCCCCCCCCCCCCC [DPPC, 1,2-Dipalmitoyl-sn-glycero-3-phosphocholine] |
| 40 | CCCCCCCCCCCCCCCCCC(=O)O[C@H](COC(=O)CCCCCCCCCCCCC)COP(=O)([O-])OCC[N+](C)(C)C [1-Myristoyl-2-stearoyl-sn-glycero-3-phosphocholine] |
| 33 | CCCCCCCCCCCCCCC(=O)OC[C@H](COP(=O)([O-])OCC[N+](C)(C)C)OC(=O)CCCCCCCCCCCCCC [1,2-Dipentadecanoyl-sn-glycero-3-phosphocholine] |
| 30 | CCCCCCCCCCCCCCCCCC(=O)OC[C@H](COP(=O)([O-])OCC[N+](C)(C)C)OC(=O)CCCCCCCCCCCCC [1-Stearoyl-2-myristoyl-sn-glycero-3-phosphocholine] |
| 27 | CCCCCCCCCCCCCCCC(=O)OC[C@H](COP(=O)([O-])OCC[N+](C)(C)C)OC(=O)CCCCCCCCCCCCC [1-Palmitoyl-2-myristoyl-sn-glycero-3-phosphocholine] |
| 35 | CCCCCCCCCCCCCCCC(=O)O[C@H](COC(=O)CCCCCCCCCCCCC)COP(=O)([O-])OCC[N+](C)(C)C [1-Myristoyl-2-palmitoyl-sn-glycero-3-phosphocholine] |

Same assay, conditions: Table 2, phospholipids with high transition temperatures

| Structure (SMILES) | Transition Temperature [°C] |
| --- | --- |
| CCCCCCCCCCCCCCCC(=O)OC[C@H](COP(=O)(O)OCCN)OC(=O)CCCCCCCCCCCCCCC [DPPE, 1,2-Dipalmitoyl-sn-glycero-3-phosphoethanolamine] | 63 |
| CCCCCCCCCCCCCCCCCC(=O)OCC(COP(=O)(O)OCC(O)CO)OC(=O)CCCCCCCCCCCCCCCCC (racemic) [DSPG, 1,2-Distearoyl-sn-glycero-3-[phospho-rac-(1-glycerol)]] | 55 |
| CCCCCCCCCCCCCCCC(=O)OC[C@H](COP(=O)(O)O)OC(=O)CCCCCCCCCCCCCCC [DPPA, 1,2-Dipalmitoyl-sn-glycero-3-phosphate] | 67 |
| CCCCCCCCCCCCCCCCCC(=O)OC[C@H](COP(=O)(O)OCCN)OC(=O)CCCCCCCCCCCCCCCCC [DSPE, 1,2-Distearoyl-sn-glycero-3-phosphoethanolamine] | 74 |
| CCCCCCCCCCCCCC(=O)OC[C@H](COP(=O)(O)OCCN)OC(=O)CCCCCCCCCCCCC [DMPE, 1,2-Dimyristoyl-sn-glycero-3-phosphoethanolamine] | 50 |
| CCCCCCCCCCCCCCCCCC(=O)OC[C@H](COP(=O)(O)OC[C@H](N)C(=O)O)OC(=O)CCCCCCCCCCCCCCCCC [1,2-Distearoyl-sn-glycero-3-[phospho-L-serine]] | 68 |
| CCCCCCCCCCCCCC(=O)OC[C@H](COP(=O)(O)O)OC(=O)CCCCCCCCCCCCC [DMPA, 1,2-Dimyristoyl-sn-glycero-3-phosphate] | 50 |
| CCCCCCCCCCCCCCCC(=O)OC[C@H](COP(=O)(O)OC[C@H](N)C(=O)O)OC(=O)CCCCCCCCCCCCCCC [1,2-Dipalmitoyl-sn-glycero-3-[phospho-L-serine]] | 54 |

More lines, now with the values ahead:

| Transition Temperature [°C] | Structure (SMILES) |
| --- | --- |
| 48 | CCCCCCCCCCCCCCCCC(=O)OC[C@H](COP(=O)([O-])OCC[N+](C)(C)C)OC(=O)CCCCCCCCCCCCCCCC [1,2-Diheptadecanoyl-sn-glycero-3-phosphocholine] |
| 55 | CCCCCCCCCCCCCCCCCC(=O)OC[C@H](COP(=O)([O-])OCC[N+](C)(C)C)OC(=O)CCCCCCCCCCCCCCCCC [DSPC, 1,2-Distearoyl-sn-glycero-3-phosphocholine] |
| 49 | CCCCCCCCCCCCCCCCCC(=O)O[C@H](COC(=O)CCCCCCCCCCCCCCC)COP(=O)([O-])OCC[N+](C)(C)C [1-Palmitoyl-2-stearoyl-sn-glycero-3-phosphocholine] |

Same assay, conditions: bulk hydrated state

| transition temperature (Tc) | Structure (SMILES) |
| --- | --- |
| approximately 41 °C | CCCCCCCCCCCCCCCC(=O)OC[C@H](COP(=O)([O-])OCC[N+](C)(C)C)OC(=O)CCCCCCCCCCCCCCC [DPPC, 1,2-Dipalmitoyl-sn-glycero-3-phosphocholine] |
| approximately 55 °C | CCCCCCCCCCCCCCCCCC(=O)OC[C@H](COP(=O)([O-])OCC[N+](C)(C)C)OC(=O)CCCCCCCCCCCCCCCCC [DSPC, 1,2-Distearoyl-sn-glycero-3-phosphocholine] |

| Structure (SMILES) | transition temperature (Tc) |
| --- | --- |
| CCCCCCCCCCCCCCCC(=O)OC[C@H](COP(=O)(O)OCCN)OC(=O)CCCCCCCCCCCCCCC [DPPE, 1,2-Dipalmitoyl-sn-glycero-3-phosphoethanolamine] | approximately 63 °C |

Same assay, conditions: phospholipid of the formulation

| theoretical transition [°C] | Structure (SMILES) |
| --- | --- |
| 41 | CCCCCCCCCCCCCCCC(=O)OC[C@H](COP(=O)([O-])OCC[N+](C)(C)C)OC(=O)CCCCCCCCCCCCCCC [DPPC, 1,2-Dipalmitoyl-sn-glycero-3-phosphocholine] |
| 55 | CCCCCCCCCCCCCCCCCC(=O)OC[C@H](COP(=O)([O-])OCC[N+](C)(C)C)OC(=O)CCCCCCCCCCCCCCCCC [DSPC, 1,2-Distearoyl-sn-glycero-3-phosphocholine] |
